Reference: patent publication US8686044B2, “Amide derivative, pest control agent containing the amide derivative, and use of the amide derivative” (Mitsui Chemicals Agro, Inc., priority 2008, dated 2014)

How the values were obtained:
Type in all cases: in vivo
Laodelphax striatellus = experiment: Pesticidal test against Laodelphax striatellus (rice seedling spray); conditions: 144 h, concentration 100 ppm, 3-stage larvae, examined after 6 days, 25° C., read-out: pesticidal rate
Method: Pesticidal Test against Laodelphax striatellus
2.5 ml of an acetone solution in which a test compound had been prepared at a predetermined concentration was sprayed on rice seedlings, air-dried, and then put into a glass tube having a diameter of 3 cm and a height of 13 cm, having water therein, and 3-stage larvae of Laodelphax striatellus were released and the tube was capped. They were left to stand in a thermostatic chamber at 25° C., and the numbers of the living pests and the dead pests were examined after 6 days. The test was carried out with ten larvae per group in two replicates.

Plutella xylostella = experiment: Pesticidal test against Plutella xylostella (cabbage leaf dip); conditions: foliar, 144 h, 2-stage larvae, examined after 6 days, 25° C., read-out: pesticidal rate; for pest or weed control at 1 ppm: concentration 1 ppm; for pest or weed control at 10 ppm: concentration 10 ppm
Method in brief: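 Second-stage larvae (5 per group, two replicates) were released onto air-dried cabbage leaf discs that had been immersed for 30 seconds in compound solution at a set concentration. Mortality was scored after 6 days at 25° C.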

Spodoptera litura = experiment: Pesticidal test against Spodoptera litura (cabbage leaf dip); conditions: foliar, 144 h, 2-stage larvae, examined after 6 days, 25° C., read-out: pesticidal rate; for pest or weed control at 1 ppm: concentration 1 ppm; for pest or weed control at 10 ppm: concentration 10 ppm
Method in brief: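 Cabbage leaf pieces dipped 30 seconds in compound solution at a predetermined concentration and air-dried, then offered to second-stage larvae, five per group in two replicates. Held at 25° C. Living and dead larvae counted after 6 days.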

CN(C(=O)c1ccc(C#N)cc1)c1cccc(C(=O)N(C)c2c(Br)cc(C(F)(C(F)(F)F)C(F)(F)F)cc2C(F)(F)F)c1 [9-291]
≥ 70%: pest or weed control at 100 ppm (Laodelphax striatellus) | pest or weed control at 1 ppm (Plutella xylostella) | pest or weed control at 1 ppm (Spodoptera litura)

CN(C(=O)c1ccccc1)c1cccc(C(=O)Nc2c(Cl)cc(C(F)(C(F)(F)F)C(F)(F)F)cc2Cl)c1F [7-948]
≥ 70%: pest or weed control at 100 ppm (Laodelphax striatellus) | pest or weed control at 1 ppm (Plutella xylostella) | pest or weed control at 1 ppm (Spodoptera litura)

CN(C(=O)c1cccc(F)c1)c1cccc(C(=O)Nc2c(I)cc(C(F)(C(F)(F)F)C(F)(F)F)cc2C(F)(F)F)c1 [7-426]
≥ 70%: pest or weed control at 100 ppm (Laodelphax striatellus) | pest or weed control at 1 ppm (Plutella xylostella) | pest or weed control at 1 ppm (Spodoptera litura)

N#Cc1ccc(C(=O)Nc2cccc(C(=O)Nc3c(Br)cc(C(F)(C(F)(F)F)C(F)(F)F)cc3OC(F)(F)F)c2F)cc1 [6-5909]
≥ 70%: pest or weed control at 100 ppm (Laodelphax striatellus) | pest or weed control at 1 ppm (Plutella xylostella) | pest or weed control at 1 ppm (Spodoptera litura)

CN(C(=O)c1ccc(C#N)cc1)c1cc(C(=O)Nc2c(Cl)cc(C(F)(C(F)(F)F)C(F)(F)F)cc2C(F)(F)F)ccc1C#N [2-491, N-(2-chloro-4-(perfluoropropan-2-yl)-6-(trifluoromethyl)phenyl)-4-cyano-3-(4-cyano-N-methylbenzamide)benzamide]
≥ 70%: pest or weed control at 100 ppm (Laodelphax striatellus) | pest or weed control at 1 ppm (Plutella xylostella) | pest or weed control at 1 ppm (Spodoptera litura)

O=C(Nc1cccc(C(=O)Nc2c(I)cc(C(F)(C(F)(F)F)C(F)(F)F)cc2I)c1F)c1ccc(Cl)nc1 [6-1303]
≥ 70%: pest or weed control at 100 ppm (Laodelphax striatellus) | pest or weed control at 1 ppm (Plutella xylostella) | pest or weed control at 1 ppm (Spodoptera litura)

CN(C(=O)c1ccc(C#N)nc1)c1cccc(C(=O)Nc2c(Br)cc(C(F)(C(F)(F)F)C(F)(F)F)cc2C(F)(F)F)c1 [7-316]
≥ 70%: pest or weed control at 100 ppm (Laodelphax striatellus) | pest or weed control at 10 ppm (Plutella xylostella) | pest or weed control at 10 ppm (Spodoptera litura)

O=C(Nc1cccc(C(=O)Nc2c(Br)cc(C(F)(C(F)(F)F)C(F)(F)F)cc2OC(F)(F)F)c1F)c1ccccc1 [6-5907]
≥ 70%: pest or weed control at 100 ppm (Laodelphax striatellus) | pest or weed control at 1 ppm (Plutella xylostella) | pest or weed control at 1 ppm (Spodoptera litura)

CN(C(=O)c1cccnc1Cl)c1cccc(C(=O)Nc2c(Br)cc(C(F)(C(F)(F)F)C(F)(F)F)cc2C(F)(F)F)c1F [7-1610]
≥ 70%: pest or weed control at 100 ppm (Laodelphax striatellus) | pest or weed control at 1 ppm (Plutella xylostella) | pest or weed control at 1 ppm (Spodoptera litura)

CN(C(=O)c1ccncc1)c1cccc(C(=O)Nc2c(Br)cc(C(F)(C(F)(F)F)C(F)(F)F)cc2C(F)(F)F)c1F [7-1639]
≥ 70%: pest or weed control at 100 ppm (Laodelphax striatellus) | pest or weed control at 1 ppm (Plutella xylostella) | pest or weed control at 1 ppm (Spodoptera litura)

CN(C(=O)c1cncnc1)c1cccc(C(=O)Nc2c(I)cc(C(F)(C(F)(F)F)C(F)(F)F)cc2C(F)(F)F)c1 [7-5909]
≥ 70%: pest or weed control at 100 ppm (Laodelphax striatellus) | pest or weed control at 1 ppm (Plutella xylostella) | pest or weed control at 10 ppm (Spodoptera litura)

O=C(Nc1cccc(C(=O)Nc2c(I)cc(C(F)(C(F)(F)F)C(F)(F)C(F)(F)F)cc2I)c1)c1ccccc1 (stereo not drawn) [6-71]
≥ 70%: pest or weed control at 100 ppm (Laodelphax striatellus) | pest or weed control at 1 ppm (Plutella xylostella) | pest or weed control at 1 ppm (Spodoptera litura)

CN(C(=O)c1c(F)cccc1F)c1cccc(C(=O)Nc2c(Br)cc(C(F)(C(F)(F)F)C(F)(F)C(F)(F)F)cc2Br)c1F (stereo not drawn) [7-1204]
≥ 70%: pest or weed control at 100 ppm (Laodelphax striatellus) | pest or weed control at 1 ppm (Plutella xylostella) | pest or weed control at 1 ppm (Spodoptera litura)

CN(C(=O)c1ccccc1F)c1cccc(C(=O)Nc2c(I)cc(C(F)(C(F)(F)F)C(F)(F)C(F)(F)F)cc2I)c1F (stereo not drawn) [7-1339]
≥ 70%: pest or weed control at 100 ppm (Laodelphax striatellus) | pest or weed control at 1 ppm (Plutella xylostella) | pest or weed control at 1 ppm (Spodoptera litura)

O=C(Nc1cccc(C(=O)Nc2c(I)cc(C(F)(C(F)(F)F)C(F)(F)C(F)(F)F)cc2I)c1F)c1ccccc1F (stereo not drawn) [6-1339]
≥ 70%: pest or weed control at 100 ppm (Laodelphax striatellus) | pest or weed control at 1 ppm (Plutella xylostella) | pest or weed control at 1 ppm (Spodoptera litura)

N#Cc1ccc(C(=O)Nc2cccc(C(=O)Nc3c(I)cc(C(F)(C(F)(F)F)C(F)(F)F)cc3C(F)(F)F)c2)cc1 [6-445]
≥ 70%: pest or weed control at 100 ppm (Laodelphax striatellus) | pest or weed control at 1 ppm (Plutella xylostella) | pest or weed control at 1 ppm (Spodoptera litura)

O=C(Nc1cccc(C(=O)Nc2c(Br)cc(C(F)(C(F)(F)F)C(F)(F)F)cc2C(F)(F)F)c1)c1ccc(Cl)nc1 [6-311]
≥ 70%: pest or weed control at 100 ppm (Laodelphax striatellus) | pest or weed control at 10 ppm (Plutella xylostella) | pest or weed control at 1 ppm (Spodoptera litura)

O=C(Nc1c(Br)cc(C(F)(C(F)(F)F)C(F)(F)C(F)(F)F)cc1Br)c1cccc(NC(=O)c2cccnc2Cl)c1 (stereo not drawn) [6-57]
≥ 70%: pest or weed control at 100 ppm (Laodelphax striatellus) | pest or weed control at 1 ppm (Plutella xylostella) | pest or weed control at 1 ppm (Spodoptera litura)

O=C(Nc1cccc(C(=O)Nc2c(Br)cc(C(F)(C(F)(F)F)C(F)(F)C(F)(F)F)cc2Br)c1F)c1ccccc1F (stereo not drawn) [6-1183]
≥ 70%: pest or weed control at 100 ppm (Laodelphax striatellus) | pest or weed control at 1 ppm (Plutella xylostella) | pest or weed control at 1 ppm (Spodoptera litura)

O=C(Nc1c(Br)cc(C(F)(C(F)(F)F)C(F)(F)F)cc1C(F)(F)F)c1cccc(NC(=O)c2ccccc2F)c1 [6-269]
≥ 70%: pest or weed control at 100 ppm (Laodelphax striatellus) | pest or weed control at 10 ppm (Plutella xylostella) | pest or weed control at 1 ppm (Spodoptera litura)

O=C(Nc1cccc(C(=O)Nc2c(I)cc(C(F)(C(F)(F)F)C(F)(F)F)cc2C(F)(F)F)c1F)c1ccc(Cl)cc1Cl [6-1754]
≥ 70%: pest or weed control at 100 ppm (Laodelphax striatellus) | pest or weed control at 1 ppm (Plutella xylostella) | pest or weed control at 1 ppm (Spodoptera litura)

CN(C(=O)c1ccc(F)cc1)c1cccc(C(=O)Nc2c(Br)cc(C(F)(C(F)(F)F)C(F)(F)C(F)(F)F)cc2Br)c1 (stereo not drawn) [7-5907]
≥ 70%: pest or weed control at 100 ppm (Laodelphax striatellus) | pest or weed control at 1 ppm (Plutella xylostella) | pest or weed control at 1 ppm (Spodoptera litura)

O=C(Nc1cccc(C(=O)Nc2c(Br)cc(C(F)(C(F)(F)F)C(F)(F)F)cc2C(F)(F)C(F)(F)F)c1F)c1ccccc1 [6-5910]
≥ 70%: pest or weed control at 100 ppm (Laodelphax striatellus) | pest or weed control at 1 ppm (Plutella xylostella) | pest or weed control at 1 ppm (Spodoptera litura)

O=C(Nc1cccc(C(=O)Nc2c(Br)cc(C(F)(C(F)(F)F)C(F)(F)C(F)(F)F)cc2Br)c1F)c1ccc(F)cc1 (stereo not drawn) [6-1185]
≥ 70%: pest or weed control at 100 ppm (Laodelphax striatellus) | pest or weed control at 1 ppm (Plutella xylostella) | pest or weed control at 1 ppm (Spodoptera litura)

CN(C(=O)c1cccnc1Cl)c1cccc(C(=O)Nc2c(I)cc(C(F)(C(F)(F)F)C(F)(F)F)cc2C(F)(F)F)c1 [7-460]
≥ 70%: pest or weed control at 100 ppm (Laodelphax striatellus) | pest or weed control at 1 ppm (Plutella xylostella) | pest or weed control at 1 ppm (Spodoptera litura)

CN(C(=O)c1ccc(F)cc1)c1cccc(C(=O)Nc2c(I)cc(C(F)(C(F)(F)F)C(F)(F)C(F)(F)F)cc2I)c1F (stereo not drawn) [7-1341]
≥ 70%: pest or weed control at 100 ppm (Laodelphax striatellus) | pest or weed control at 1 ppm (Plutella xylostella) | pest or weed control at 1 ppm (Spodoptera litura)

O=C(Nc1cccc(C(=O)Nc2c(I)cc(C(F)(C(F)(F)F)C(F)(F)C(F)(F)F)cc2I)c1F)c1ccc(Cl)nc1 (stereo not drawn) [6-1381]
≥ 70%: pest or weed control at 100 ppm (Laodelphax striatellus) | pest or weed control at 1 ppm (Plutella xylostella) | pest or weed control at 1 ppm (Spodoptera litura)

O=C(Nc1cccc(C(=O)Nc2c(I)cc(C(F)(C(F)(F)F)C(F)(F)C(F)(F)F)cc2I)c1)c1cccc(F)c1 (stereo not drawn) [6-5903]
≥ 70%: pest or weed control at 100 ppm (Laodelphax striatellus) | pest or weed control at 1 ppm (Plutella xylostella) | pest or weed control at 1 ppm (Spodoptera litura)

CN(C(=O)c1cccc(C#N)c1)c1cccc(C(=O)Nc2c(Br)cc(C(F)(C(F)(F)F)C(F)(F)F)cc2C(F)(F)F)c1 [7-288]
≥ 70%: pest or weed control at 100 ppm (Laodelphax striatellus) | pest or weed control at 1 ppm (Plutella xylostella) | pest or weed control at 1 ppm (Spodoptera litura)

CN(C(=O)c1cccc(NC(=O)c2cccnc2Cl)c1)c1c(C(F)(F)F)cc(C(F)(C(F)(F)F)C(F)(F)F)cc1C(F)(F)F [8-840]
≥ 70%: pest or weed control at 100 ppm (Laodelphax striatellus) | pest or weed control at 10 ppm (Plutella xylostella) | pest or weed control at 1 ppm (Spodoptera litura)

CN(C(=O)c1cccnc1F)c1cccc(C(=O)Nc2c(Br)cc(C(F)(C(F)(F)F)C(F)(F)F)cc2C(F)(F)F)c1 [7-303]
≥ 70%: pest or weed control at 100 ppm (Laodelphax striatellus) | pest or weed control at 1 ppm (Plutella xylostella) | pest or weed control at 1 ppm (Spodoptera litura)

O=C(Nc1cc(C(=O)Nc2c(Br)cc(C(F)(C(F)(F)F)C(F)(F)F)cc2C(F)(F)F)ccc1F)c1ccccc1 [6-3348, 3-benzamide-N-(2-bromo-4-(perfluoropropan-2-yl)-6-(trifluoromethyl)phenyl)-4-fluorobenzamide]
≥ 70%: pest or weed control at 100 ppm (Laodelphax striatellus) | pest or weed control at 1 ppm (Plutella xylostella) | pest or weed control at 1 ppm (Spodoptera litura)
